# Measured values published in article PMC5369052, “Calcium regulation of the human mitochondrial ATP-Mg/Pi carrier SLC25A24 uses a locking pin mechanism” (Scientific Reports, 2017).
# B1: full-length human mitochondrial ATP-Mg/Pi carrier isoform 1 (APC1; SCaMC1/SLC25A24) (Homo sapiens) (protein)
# chain: MLRWLRDFVLPTAACQDAEQPTRYETLFQALDRNGDGVVDIGELQEGLRNLGIPLGQDAEEKIFTTGDVNKDGKLDFEEFMKYLKDHEKKMKLAFKSLDKNNDGKIEASEIVQSLQTLGLTISEQQAELILQSIDVDGTMTVDWNEWRDYFLFNPVTDIEEIIRFWKHSTGIDIGDSLTIPDEFTEDEKKSGQWWRQLLAGGIAGAVSRTSTAPLDRLKIMMQVHGSKSDKMNIFGGFRQMVKEGGIRSLWRGNGTNVIKIAPETAVKFWAYEQYKKLLTEEGQKIGTFERFISGSMAGATAQTFIYPMEVMKTRLAVGKTGQYSGIYDCAKKILKHEGLGAFYKGYVPNLLGIIPYAGIDLAVYELLKSYWLDNFAKDSVNPGVMVLLGCGALSSTCGQLASYPLALVRTRMQAQAMLEGSPQLNMVGLFRRIISKEGIPGLYRGITPNFMKVLPAVGISYVVYENMKQTLGVTQK
# notes: full length, N-terminal His8 tag + Factor Xa site (IEGR), tag cut by factor Xa; codon-optimised, expressed in S. cerevisiae mitochondria; purified in LMNG, reconstituted in PC/cardiolipin liposomes
# Experiments:
# [1] = target: T1, ∆1-191 APC1 (∆1-191_APC1) (Homo sapiens, UniProt Q6NUK1); experiment: counter-exchange of internal ADP with external […]-ATP in proteoliposomes; type: biochemical; settings: 2.5 mM internal ADP; 5 mM MgCl2 outside; pH 7.4, 20 °C
# T1 construct: gene SLC25A24; carrier domain only, N-terminal truncation; His8-Factor Xa tag cut, primer adds TSED after IEGR; in liposomes
# T1 sequence (Q6NUK1 191-477): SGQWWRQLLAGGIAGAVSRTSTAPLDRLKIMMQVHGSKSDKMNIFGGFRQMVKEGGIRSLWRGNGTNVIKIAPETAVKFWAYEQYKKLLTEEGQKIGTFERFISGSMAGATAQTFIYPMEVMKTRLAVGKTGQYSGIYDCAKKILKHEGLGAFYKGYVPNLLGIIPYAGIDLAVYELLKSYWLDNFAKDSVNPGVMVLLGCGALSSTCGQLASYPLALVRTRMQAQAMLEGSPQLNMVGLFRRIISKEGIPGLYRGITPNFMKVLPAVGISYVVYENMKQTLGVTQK
# [2] = target: T1, ∆1-191 APC1 (∆1-191_APC1); experiment: […]-ATP uptake into proteoliposomes, initial rates; type: biochemical; settings: 1.5 μM external ATP exchanged for 2.5 mM internal ADP; 5 mM MgCl2 outside; pH 7.4, 20 °C; labelled compound
# [3] = substrate: Nc1ncnc2c1ncn2[C@@H]1O[C@H](COP(=O)(O)OP(=O)(O)OP(=O)(O)O)[C@@H](O)[C@H]1O; experiment: purified protein; type: biochemical, Homo sapiens; settings: 4 mM total external CaCl2 (calcium-activated state), 2.5 mM internal ATP, 20 mM Tris-HCl pH 7.4, 20 °C, labelled compound
molecule,measurement,setting,value
Nc1ncnc2c1ncn2[C@@H]1O[C@H](COP(=O)(O)OP(=O)(O)O)[C@@H](O)[C@H]1O [ADP],counter-exchange of internal ADP with external [14C]-ATP in proteoliposomes,[1],hetero-exchange between ATP and ADP was monitored over a 15-minute time course
Nc1ncnc2c1ncn2[C@@H]1O[C@H](COP(=O)(O)OP(=O)(O)OP(=O)(O)O)[C@@H](O)[C@H]1O [ATP],"[14C]-ATP uptake into proteoliposomes, initial rates",[2],uptake rate of ATP was highest in the presence of externally added magnesium
B1,Km,[3],29 ± 8 µM
